Source: patent US20150192565A1, “METHOD FOR EVALUATING THERAPEUTIC EFFECT OF T[…] APPLICATION THEREOF” (NATIONAL TAIWAN UNIVERSITY, priority 2014, published 2015)

Key:
HCC [1] = test: Thalidomide as adjuvant therapy after curative resection for HCC, HCC recurrence by LHX4 expression group (Kaplan-Meier); type: in vivo, human; details: for HCC recurrence rate (%) / Number of HCC recurrence patients: three-year
Protocol: Samples of liver tissue were obtained from 48 patients, who suffered HCC at stage II or III (defined by American Joint Committee on Cancer, AJCC) and underwent curative resection for the HCC. All of the patients were enrolled within 4 weeks after surgery. 27 of the patients received Thalidomide 200 mg/day and the others received a placebo 200 mg/day for 12 months or until HCC recurrence.
The sample of liver tissue from each patient includes tumorous tissue and non-tumorous tissue neighboring the tumorous tissue. The respective Lhx4 proteins in the tumorous and non-tumorous tissues of each patient were detected using western blot and then quantified by ImageJ software (published by the National Institutes of Health of United States of America). The quantified results of the Lhx4 proteins in the tumorous and non-tumorous tissues were respectively normalized based on the quantified results of β-actin in the tumorous and non-tumorous tissues of the corresponding patient to obtain the (protein) expression levels of the LHX4 gene in the tumorous and non-tumorous tissues of the patient.
For each and every patient, the expression level of the LHX4 gene in the tumorous tissue (called “T” hereinafter) was divided by the expression level of the LHX4 gene in the non-tumorous tissue (called “NT” hereinafter) to obtain a T/NT ratio, which represents the decreasing magnitude of the expression level of the LHX4 gene in the tumorous tissue when compared with the non-tumorous tissue.
In an embodiment, the correlation between the decreasing magnitude of the expression level of the LHX4 gene in the tumorous tissue of a patient and the therapeutic effect of Thalidomide on the liver cancer of the patient is indicated by the HCC recurrence of the patient. Specifically, the end date of observation of a patient's HCC recurrence is set as the date three years after the surgery for the liver cancer.
In an embodiment, the 48 patients were divided into two groups according the T/NT ratio to evaluate the therapeutic effect of Thalidomide on the patients. […]
Each of FIGS. 2A, 2B and 2C show the respective 3-year HCC recurrence-free survival days (from the date that the patient underwent the surgery for the liver cancer to the date of observing the HCC recurrence of the patient) of the patients, where the event in the curves is the first HCC recurrence of a patient after the surgery.
In an embodiment, for each of the 48 patients, the LHX4 expression level in the tumorous tissue was obtained through normalizing the quantified result of the western blot of the Lhx4 protein of the tumorous tissue based on a specific amount of β-actin in the tumorous tissue. After the normalization, the LHX4 expression levels in the tumorous tissue of all the patients, normalized by the same amount of β-actin, were obtained. […] Each of FIGS. 3A, 3B and 3C show the respective 3-year HCC recurrence-free survival days (from the date that the patient underwent the surgery for the liver cancer to the date of observing the HCC recurrence of the patient) of the patients, where the event of the curves is the first HCC recurrence in a patient after the surgery.

HCC [2] = details: adjuvant therapy after surgical resection; placebo 33%; cited from earlier work
[3] = T/NT ratio < 0.2, 13 total patients
[4] = T/NT ratio ≧ 0.2, 14 total patients

SMILES: O=C1CCC(N2C(=O)c3ccccc3C2=O)C(=O)N1 (racemic) [Thalidomide, (RS)-2-(2,6-dioxopiperidin-3-yl)-1H-isoindole-1,3(2H)-dione]
- mean 3-year HCC recurrence-free survival days, lower group compared with higher group (HCC [1]; groups divided by arithmetic average of LHX4 expression levels in tumorous tissue, patients receiving Thalidomide): obviously delayed
- mean 3-year HCC recurrence-free survival days (HCC [1]; higher group, LHX4 expression level in tumorous tissue not lower than 0.17 (median), 14 patients, FIG. 3B/3C, P=0.567 vs placebo (535 days)): 466 days
- mean 3-year HCC recurrence-free survival days (HCC [1]; higher group, T/NT ratio not lower than 0.2, Thalidomide 200 mg/day, 14 patients, FIG. 1B/1C, P=0.687 vs placebo (535 days)): 521 days
- mean 3-year HCC recurrence-free survival days (HCC [1]; higher group, T/NT ratio not lower than 0.5, 5 patients, FIG. 2B/2C, P=0.272 vs placebo (493 days)): 344 days
- mean 3-year HCC recurrence-free survival days (HCC [1]; lower group, LHX4 expression level in tumorous tissue lower than 0.17 (median), 13 patients, FIG. 3A/3C, P=0.033 vs placebo (526 days)): 833 days
- mean 3-year HCC recurrence-free survival days (HCC [1]; lower group, T/NT ratio lower than 0.2, Thalidomide 200 mg/day, 13 patients, FIG. 1A/1C, P=0.06 vs placebo (526 days)): 744 days
- mean 3-year HCC recurrence-free survival days (HCC [1]; lower group, T/NT ratio lower than 0.5, 22 patients, FIG. 2A/2C, P=0.2 vs placebo (545 days)): 711 days
- HCC recurrence rate (%) (HCC [1]; [3]): 38.5%
- Number of HCC recurrence patients (HCC [1]; [3]): 5
- HCC recurrence rate (%) (HCC [1]; [4]): 85.7%
- Number of HCC recurrence patients (HCC [1]; [4]): 12
- two-year HCC recurrence-free survival rate (HCC [2]): 65%
